In patent EP4509511A1, “SUBSTITUTED SPIRO-ISOXAZOLINYL LACTAMS, SALTS THEREOF AND THEIR USE AS HERBICIDALLY ACTIVE SUBSTANCES” (Bayer Aktiengesellschaft, priority 2023, dated 2025):

Experiments:
ABUTH [1] = experiment: Herbicidal post-emergence action - Part II; type: in vivo, Abutilon theophrasti
In short: (§1)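 Post-emergence greenhouse test: weeds and crops in sandy loam sprayed at single-leaf stage, 2–3 weeks after sowing, with WP or EC formulations in water plus 0.5% additive at 600 l water/ha. Rates 320 g/ha or below. Visual rating after ca. 3 weeks versus untreated controls, % effect (100% = plants dead).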

AMARE = experiment: Herbicidal post-emergence action - Part II; type: in vivo, Amaranthus retroflexus
In short: as §1

ECHCG = experiment: Herbicidal post-emergence action - Part II; type: in vivo, Echinochloa crus-galli; details: 20 g/ha; Table E3a
Description: (§2) Seeds of mono- and dicotyledonous weed plants and crop plants were sown, in plastic or organic planting pots, in sandy loam, covered with soil and grown in a greenhouse under controlled growth conditions. 2 to 3 weeks after sowing, the test plants were sprayed in the single-leaf stage. The compounds according to the invention, formulated in form of wettable powders (WP) or as emulsifiable concentrates (EC), were sprayed onto the green plant parts as aqueous suspension or emulsion, with the addition of 0.5% of an additive, at an application rate of 600 1 of water/ha (converted). The test plants were placed in the greenhouse for ca. 3 weeks under optimum growth conditions, and then the effect of the preparations was assessed visually in comparison with untreated controls (herbicidal effect in percent (%): 100% effect = plants have died off, 0% effect = as control plants). Tables E1 to E10 below show the effects of selected compounds of the general formula (I) according to table 1 on various harmful plants and an application rate corresponding to 320 g/ha or below obtained by the experimental procedure mentioned above. Table E1a: post-emergence activity at 5g/ha against ABUTH in %

MATIN = experiment: Herbicidal post-emergence action - Part II; type: in vivo, Matricaria inodora
In short: as §1

PHBPU = experiment: Herbicidal post-emergence action - Part II; type: in vivo, Pharbitis purpurea
In short: as §1

POLCO = experiment: Herbicidal post-emergence action - Part II; type: in vivo, Polygonum convolvulus; details: 20 g/ha; Table E6
Description: as §2

SETVI = experiment: Herbicidal post-emergence action - Part II; type: in vivo, Setaria viridis
Description: as §2

VERPE = experiment: Herbicidal post-emergence action - Part II; type: in vivo, Veronica persica
In short: as §1

VIOTR = experiment: Herbicidal post-emergence action - Part II; type: in vivo, Viola tricolor
In short: as §1

TRZAS = experiment: Post-emergence effects on crop plants; type: in vivo, Triticum aestivum; details: crop plant
In short: (§3)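 Crop plants were grown in sandy loam in the greenhouse and sprayed at the single-leaf stage, 2–3 weeks after sowing, with WP or EC formulations plus 0.5% additive in 600 l water/ha, at rates of 320 g/ha or below. Injury was scored visually about 3 weeks later as % effect versus untreated controls (100% = plants dead).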

ZEAMX = experiment: Post-emergence effects on crop plants; type: in vivo, Zea mays; details: crop plant
In short: as §3

BRSNW = experiment: Post-emergence effects on crop plants; type: in vivo, Brassica napus; details: 5 g/ha; Table F5a; crop plant
Description: as §2, with “F1” for “E1”, “F5” for “E10”, “crop” for “harmful”, “[…]:” for “E1a:”, “ZEAMX” for “ABUTH”

ABUTH [2] = experiment: Herbicidal pre-emergence action - Part I; type: in vivo, Abutilon theophrasti; details: visual grading after ca. 3 weeks vs untreated controls
Description: Seeds of mono- and dicotyledonous weed plants were sown in plastic pots (double sowings with one species of mono- and one species of dicotyledonous weed plants per pot), in sandy loam, and covered with soil. The compounds according to the invention, formulated in the form of wettable powders (WP) or as emulsifiable concentrates (EC), were applied to the surface of the covering soil as aqueous suspension or emulsion, with the addition of 0.5% of an additive, at an application rate of 600 1 of water per hectare (converted). Following treatment, the pots were placed in a greenhouse and kept under optimum growth conditions for the test plants. The visual grading of the damage to the test plants was carried out after ca. 3 weeks in comparison to untreated controls (herbicidaleffectinpercent(%):100%effect=plantshavediedoff,0%effect=ascontrolplants). [formula]
Tables A1 to A12, below, show the effects of selected compounds of the general formula (I) according to table 1 on various harmful plants and an application rate corresponding to 1280 g/ha or below obtained by the experimental procedure mentioned above. Table A1: pre-emergence activity at 1280g/ha against ABUTH in %

Compound: Cn1c(C(F)(F)F)cc(=O)n(-c2cc(C3=NOC4(CCN(Cc5cccc(F)c5F)C4=O)C3)c(Cl)cc2F)c1=O (racemic) [Compound I-33]
- post-emergence activity against ABUTH (ABUTH [1]; 5 g/ha, Table E1a): 100%
- post-emergence activity against ABUTH (ABUTH [1]; 20 g/ha, Table E1b): 100%
- post-emergence activity against AMARE (AMARE; 5 g/ha, Table E2a): 100%
- post-emergence activity against AMARE (AMARE; 20 g/ha, Table E2b): 100%
- post-emergence activity against ECHCG (ECHCG): 100%
- post-emergence activity against MATIN (MATIN; 5 g/ha, Table E4a): 90%
- post-emergence activity against MATIN (MATIN; 20 g/ha, Table E4b): 100%
- post-emergence activity against PHBPU (PHBPU; 5 g/ha, Table E5a): 100%
- post-emergence activity against PHBPU (PHBPU; 20 g/ha, Table E5b): 100%
- post-emergence activity against POLCO (POLCO): 100%
- post-emergence activity against SETVI (SETVI; 20 g/ha, Table E7b): 100%
- post-emergence activity against VERPE (VERPE; 5 g/ha, Table E8a): 100%
- post-emergence activity against VERPE (VERPE; 20 g/ha, Table E8b): 100%
- post-emergence activity against VIOTR (VIOTR; 5 g/ha, Table E9a): 100%
- post-emergence activity against VIOTR (VIOTR; 20 g/ha, Table E9b): 100%
- post-emergence activity against TRZAS (TRZAS; 5 g/ha, Table F2a): 20%
- post-emergence activity against TRZAS (TRZAS; 20 g/ha, Table F2b): 20%

Compound: Cn1c(C(F)(F)F)cc(=O)n(-c2cc(C3=NOC4(CCCN(Cc5c(F)cccc5F)C4=O)C3)c(Cl)cc2F)c1=O (racemic) [Compound I-6]
- post-emergence activity against ABUTH (ABUTH [1]; 5 g/ha, Table E1a): 100%
- post-emergence activity against ABUTH (ABUTH [1]; 20 g/ha, Table E1b): 100%
- post-emergence activity against AMARE (AMARE; 5 g/ha, Table E2a): 100%
- post-emergence activity against AMARE (AMARE; 20 g/ha, Table E2b): 100%
- post-emergence activity against ECHCG (ECHCG): 80%
- post-emergence activity against PHBPU (PHBPU; 5 g/ha, Table E5a): 100%
- post-emergence activity against PHBPU (PHBPU; 20 g/ha, Table E5b): 100%
- post-emergence activity against SETVI (SETVI; 20 g/ha, Table E7b): 100%
- post-emergence activity against VERPE (VERPE; 5 g/ha, Table E8a): 80%
- post-emergence activity against VERPE (VERPE; 20 g/ha, Table E8b): 80%
- post-emergence activity against VIOTR (VIOTR; 5 g/ha, Table E9a): 100%
- post-emergence activity against VIOTR (VIOTR; 20 g/ha, Table E9b): 100%
- post-emergence activity against ZEAMX (ZEAMX; 5 g/ha, Table F1a): 10%
- post-emergence activity against ZEAMX (ZEAMX; 20 g/ha, Table F1b): 10%
- post-emergence activity against TRZAS (TRZAS; 5 g/ha, Table F2a): 20%

Compound: COC(=O)CN1CCC2(CC(c3cc(-n4c(=O)cc(C(F)(F)F)n(C)c4=O)c(F)cc3Cl)=NO2)C1=O (racemic) [Compound I-58]
- post-emergence activity against ABUTH (ABUTH [1]; 20 g/ha, Table E1b): 90%
- post-emergence activity against AMARE (AMARE; 5 g/ha, Table E2a): 80%
- post-emergence activity against AMARE (AMARE; 20 g/ha, Table E2b): 100%
- post-emergence activity against PHBPU (PHBPU; 5 g/ha, Table E5a): 90%
- post-emergence activity against PHBPU (PHBPU; 20 g/ha, Table E5b): 100%
- post-emergence activity against POLCO (POLCO): 100%
- post-emergence activity against VERPE (VERPE; 20 g/ha, Table E8b): 100%
- post-emergence activity against VIOTR (VIOTR; 5 g/ha, Table E9a): 80%
- post-emergence activity against VIOTR (VIOTR; 20 g/ha, Table E9b): 100%
- post-emergence activity against ZEAMX (ZEAMX; 5 g/ha, Table F1a): 10%
- post-emergence activity against ZEAMX (ZEAMX; 20 g/ha, Table F1b): 20%
- post-emergence activity against TRZAS (TRZAS; 5 g/ha, Table F2a): 10%
- post-emergence activity against TRZAS (TRZAS; 20 g/ha, Table F2b): 20%
- post-emergence activity against BRSNW (BRSNW): 0%

Compound: Cn1c(C(F)(F)F)cc(=O)n(-c2cc(C3=NOC4(CCN(Cc5ccccc5Cl)C4=O)C3)c(Cl)cc2F)c1=O (racemic) [Compound I-30]
- post-emergence activity against ABUTH (ABUTH [1]; 5 g/ha, Table E1a): 100%
- post-emergence activity against ABUTH (ABUTH [1]; 20 g/ha, Table E1b): 100%
- post-emergence activity against AMARE (AMARE; 5 g/ha, Table E2a): 100%
- post-emergence activity against AMARE (AMARE; 20 g/ha, Table E2b): 100%
- post-emergence activity against ECHCG (ECHCG): 100%
- post-emergence activity against MATIN (MATIN; 20 g/ha, Table E4b): 100%
- post-emergence activity against PHBPU (PHBPU; 5 g/ha, Table E5a): 100%
- post-emergence activity against PHBPU (PHBPU; 20 g/ha, Table E5b): 100%
- post-emergence activity against SETVI (SETVI; 20 g/ha, Table E7b): 100%
- post-emergence activity against VERPE (VERPE; 5 g/ha, Table E8a): 90%
- post-emergence activity against VERPE (VERPE; 20 g/ha, Table E8b): 100%
- post-emergence activity against VIOTR (VIOTR; 5 g/ha, Table E9a): 100%
- post-emergence activity against VIOTR (VIOTR; 20 g/ha, Table E9b): 100%
- post-emergence activity against ZEAMX (ZEAMX; 20 g/ha, Table F1b): 20%
- post-emergence activity against TRZAS (TRZAS; 5 g/ha, Table F2a): 20%
- post-emergence activity against TRZAS (TRZAS; 20 g/ha, Table F2b): 20%

Compound: Cn1c(C(F)(F)F)cc(=O)n(-c2cc(C3=NOC4(CCN(Cc5ccccc5F)C4=O)C3)c(Cl)cc2F)c1=O (racemic) [Compound I-28]
- post-emergence activity against ABUTH (ABUTH [1]; 5 g/ha, Table E1a): 80%
- post-emergence activity against ABUTH (ABUTH [1]; 20 g/ha, Table E1b): 100%
- post-emergence activity against AMARE (AMARE; 5 g/ha, Table E2a): 100%
- post-emergence activity against AMARE (AMARE; 20 g/ha, Table E2b): 100%
- post-emergence activity against ECHCG (ECHCG): 100%
- post-emergence activity against MATIN (MATIN; 20 g/ha, Table E4b): 100%
- post-emergence activity against PHBPU (PHBPU; 5 g/ha, Table E5a): 100%
- post-emergence activity against PHBPU (PHBPU; 20 g/ha, Table E5b): 100%
- post-emergence activity against SETVI (SETVI; 5 g/ha, Table E7a): 80%
- post-emergence activity against SETVI (SETVI; 20 g/ha, Table E7b): 100%
- post-emergence activity against VERPE (VERPE; 5 g/ha, Table E8a): 100%
- post-emergence activity against VERPE (VERPE; 20 g/ha, Table E8b): 100%
- post-emergence activity against VIOTR (VIOTR; 5 g/ha, Table E9a): 100%
- post-emergence activity against VIOTR (VIOTR; 20 g/ha, Table E9b): 100%
- post-emergence activity against ZEAMX (ZEAMX; 5 g/ha, Table F1a): 20%
- post-emergence activity against ZEAMX (ZEAMX; 20 g/ha, Table F1b): 20%
- post-emergence activity against TRZAS (TRZAS; 5 g/ha, Table F2a): 20%

Compound: Cc1ccsc1C1=NOC2(CCN(Cc3sc(Cl)nc3C)C2=O)C1 (racemic) [Compound I-48]
- pre-emergence activity at 1280g/ha against ABUTH in % (ABUTH [2]): 100%
